The source of these data is patent EP1367044B1, “Calixarene-derivatives having anti-viral activity” (Aids Care Pharma Limited, priority 2002, dated 2003).

For series [1] the following is noted: human, in vivo; cited from earlier work.
A further series relates to HIV. As to conditions: drug used on its own, patients; cited from earlier work.
A further series has as its system wild-type HIV-1(111a). Type of series: cell-based. As to conditions: CEM cells, 4 days incubation at 37°C, syncytium formation. Here is the method: The results shown in Table 1 for test 2 were obtained by testing cell cultures in accordance with the following procedure.
CEM cells were suspended at approximately 250,000 cells per milliliter of culture medium and infected with wild-type HIV-1(111a) at approximately 100 times the 50% cell culture infective dose (CCID50) per milliliter. Then 100µl of the infected cell suspensions were added to 200 µl microtiter plate wells containing 100 µl of an appropriate dilution of the test compounds. After 4 days incubation at 37°C the cell cultures were microscopically examined for syncytium formation.

Another series has as its target gp120/CD4 binding (UniProt P01730+P03375). Put plainly: Test 1: inhibition of gp120/CD4 binding, recombinant proteins in an immunoassay format.

For the compound `Cc1c(O)cccc1C(=O)N[C@@H](CSc1ccccc1)[C@H](O)CN1C[C@H]2CCCC[C@H]2C[C@H]1C(=O)NC(C)(C)C` [Nelfinavir (Viracept), Nelfinavir], the “SIDE EFFECTS” value in series [1] is recorded as “diarrohea, nausea & vomiting”.

Turning to `CC(C)c1nc(CN(C)C(=O)N[C@H](C(=O)N[C@@H](Cc2ccccc2)C[C@H](O)[C@H](Cc2ccccc2)NC(=O)OCc2cncs2)C(C)C)cs1` [Ritonavir], the “SIDE EFFECTS” value in series [1] is reported as “diarrhoea nausea, vomiting, hepatitis, headache”.

In the case of `Nc1ccn([C@H]2CC[C@@H](CO)O2)c(=O)n1` [Zalcitabine (ddc), Zalcitabine], the “REDUCTION IN VIRAL LOAD” value in the series with HIV was 50-90%.

Take `Nc1nc(NC2CC2)c2ncn([C@H]3C=C[C@@H](CO)C3)c2n1` [Abacavir]: the “REDUCTION IN VIRAL LOAD” value with HIV is listed as 50-90%.

For `CC(C)Nc1cccnc1N1CCN(C(=O)c2cc3cc(NS(C)(=O)=O)ccc3[nH]2)CC1` [Delaviridine], the “REDUCTION IN VIRAL LOAD” value in the series on HIV was 50-90%.

`O=C1Nc2ccc(Cl)cc2[C@@](C#CC2CC2)(C(F)(F)F)O1` [Efavirenz]: the “REDUCTION IN VIRAL LOAD” value with HIV was 50-90%.

`Cc1cn([C@H]2C[C@H](N=[N+]=[N-])[C@@H](CO)O2)c(=O)[nH]c1=O` [Zidovudine (AZT), Zidovudine]: the “REDUCTION IN VIRAL LOAD” value in the series on HIV was 50-90%. The “SIDE EFFECTS” value in series [1] was “myelosupression, myopathy, nausea, headache, anaemia”.

`Nc1ccn([C@@H]2CS[C@H](CO)O2)c(=O)n1` [Lamivudine (3TC), Lamivudine]: the “SIDE EFFECTS” value in series [1] is “gastrointestinal disturbances, hair loss, myelosuppression, exacerbation of peripheral neuropathy”.

In the case of `Cc1cn([C@H]2C=C[C@@H](CO)O2)c(=O)[nH]c1=O` [Stavudine (d4T), Stavudine], the “REDUCTION IN VIRAL LOAD” value with HIV was 50-90%.

For the compound `CC(C)(C)NC(=O)[C@@H]1C[C@@H]2CCCC[C@@H]2CN1C[C@@H](O)[C@H](Cc1ccccc1)NC(=O)[C@H](CC(N)=O)NC(=O)c1ccc2ccccc2n1` [Saquinavir], in series [1], the “SIDE EFFECTS” value is recorded as “loose stools, nausea, headache”.

In the case of “dodecapotassium acetate of p-bromopyrogallol P-F-phenyl tetramer [AC-1 (1151c)]”, in the series on wild-type HIV-1(111a), the “Test 2 EC50” value was found to be 4 µg/mL. The “% inhibition of gp120/CD4 binding” value at gp120/CD4 binding (Conc um 0.39) was determined as 48%; at gp120/CD4 binding (Conc um 0.78), 55%; on gp120/CD4 binding (Conc um 1.56), 62%; on gp120/CD4 binding (Conc um 3.125), 70%; on gp120/CD4 binding (Conc um 6.25), 82%; at gp120/CD4 binding (Conc um 12.5), 86%. For the same compound, the entries for the “% inhibition of gp120/CD4 binding” value on gp120/CD4 binding (Conc um 25), at gp120/CD4 binding (Conc um 50) and on gp120/CD4 binding (Conc um 100) were 91%, 93% and 96%, respectively. Moreover, at gp120/CD4 binding (read-out: Test 1 EC50, concentration which reduces gp120 interaction with CD4 by 50%), the EC50 (as a rule, the concentration needed to bring the measured effect to its halfway point) fell in the range of 500 to 1000 nM.

Consider `O=c1[nH]cnc2c1ncn2[C@H]1CC[C@@H](CO)O1` [Didanosine (ddl), Didanosine], for which, in the series with HIV, the “REDUCTION IN VIRAL LOAD” value was 50-90%.

As for `Cc1ccnc2c1NC(=O)c1cccnc1N2C1CC1` [Nevirapine], the “REDUCTION IN VIRAL LOAD” value in the series with HIV is listed as 50-90%.
